Reference: PMC4750701, “Role of Mitochondrial RNA Polymerase in the Toxicity of Nucleotide Inhibitors of Hepatitis C Virus” (Antimicrobial Agents and Chemotherapy, 2016)

Key:
RNA PolI = molecular target: T1, RNA PolI (Rattus norvegicus, UniProt O54889); test: RNA PolI inhibition assay; format: biochemical; conditions: NTP analogs 0 to 500 μM; read-out: Mean IC50 ± SD for RNA PolI
T1 construct: complexes were isolated from rat NSN1 cells and HeLa cells, respectively; made in house; host or cells: rat NSN1 cells expressing a FLAG-tagged Pol I subunit
T1 sequence (O54889 whole entry): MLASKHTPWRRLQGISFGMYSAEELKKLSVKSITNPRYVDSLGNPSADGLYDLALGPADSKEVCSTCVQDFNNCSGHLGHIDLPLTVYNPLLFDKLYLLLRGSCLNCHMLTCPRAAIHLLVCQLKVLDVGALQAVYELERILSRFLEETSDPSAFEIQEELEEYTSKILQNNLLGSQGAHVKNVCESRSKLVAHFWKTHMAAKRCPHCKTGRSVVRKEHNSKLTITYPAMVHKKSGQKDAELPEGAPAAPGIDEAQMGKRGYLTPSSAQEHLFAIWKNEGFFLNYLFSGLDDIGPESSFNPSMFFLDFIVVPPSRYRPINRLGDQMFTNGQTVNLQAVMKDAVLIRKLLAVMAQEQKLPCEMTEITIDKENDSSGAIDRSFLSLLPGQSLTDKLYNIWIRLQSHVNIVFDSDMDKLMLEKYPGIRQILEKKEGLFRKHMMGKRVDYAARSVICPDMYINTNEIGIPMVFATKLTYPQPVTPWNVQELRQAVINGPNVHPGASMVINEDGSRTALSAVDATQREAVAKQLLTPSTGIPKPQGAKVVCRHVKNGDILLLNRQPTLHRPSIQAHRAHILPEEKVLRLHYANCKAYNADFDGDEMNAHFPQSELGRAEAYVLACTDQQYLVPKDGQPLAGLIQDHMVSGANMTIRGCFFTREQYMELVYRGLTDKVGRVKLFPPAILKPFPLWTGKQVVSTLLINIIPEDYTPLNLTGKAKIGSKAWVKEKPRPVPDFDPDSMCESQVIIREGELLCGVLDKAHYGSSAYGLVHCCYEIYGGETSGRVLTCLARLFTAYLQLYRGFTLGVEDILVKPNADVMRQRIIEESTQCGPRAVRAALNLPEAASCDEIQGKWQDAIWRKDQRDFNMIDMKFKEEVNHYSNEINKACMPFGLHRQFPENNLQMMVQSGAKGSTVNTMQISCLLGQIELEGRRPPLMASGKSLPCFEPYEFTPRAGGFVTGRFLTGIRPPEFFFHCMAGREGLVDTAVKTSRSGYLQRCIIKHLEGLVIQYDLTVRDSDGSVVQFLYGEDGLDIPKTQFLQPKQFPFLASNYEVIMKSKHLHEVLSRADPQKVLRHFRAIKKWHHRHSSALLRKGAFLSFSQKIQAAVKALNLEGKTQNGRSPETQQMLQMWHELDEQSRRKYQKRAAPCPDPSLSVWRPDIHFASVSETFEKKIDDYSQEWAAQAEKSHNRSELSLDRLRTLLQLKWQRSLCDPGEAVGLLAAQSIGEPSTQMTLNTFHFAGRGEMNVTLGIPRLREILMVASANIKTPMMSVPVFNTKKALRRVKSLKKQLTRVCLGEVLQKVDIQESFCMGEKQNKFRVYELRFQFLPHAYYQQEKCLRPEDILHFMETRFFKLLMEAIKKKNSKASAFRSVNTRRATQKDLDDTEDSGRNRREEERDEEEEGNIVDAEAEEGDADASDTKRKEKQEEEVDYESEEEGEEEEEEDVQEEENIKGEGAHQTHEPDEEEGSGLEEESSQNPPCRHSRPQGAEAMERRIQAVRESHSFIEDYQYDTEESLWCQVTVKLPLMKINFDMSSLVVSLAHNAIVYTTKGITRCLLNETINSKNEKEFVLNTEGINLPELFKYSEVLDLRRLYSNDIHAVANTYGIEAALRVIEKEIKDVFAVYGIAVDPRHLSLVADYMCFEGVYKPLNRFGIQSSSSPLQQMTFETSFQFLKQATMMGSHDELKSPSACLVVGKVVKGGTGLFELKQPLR
Text: Human DNA polymerase alpha, isolated from HeLa cell extracts, was from CHIMERx (Madison, WI). Recombinant human DNA polymerase beta, expressed in E. coli, was a gift from Zucai Suo at The Ohio State University. Recombinant human DNA polymerase gamma (including both the large subunit and the small subunit) was cloned, expressed, and purified from insect cells by Gilead Sciences (Foster City, CA) ([13]). RNA PolII was purchased as part of the HeLaScribe nuclear extract in vitro transcription system kit from Promega (Madison, WI). The recombinant human PolRMT and the transcription factors mitochondrial transcription factor A (mtTFA) and B2 (mtTFB2) were purchased from Enzymax (Lexington, KY). FLAG epitope-tagged RNA PolI and PolIII complexes were isolated from rat NSN1 cells and HeLa cells, respectively ([17], [18]). The inhibition of DNA polymerases alpha, beta, and gamma, PolRMT, and PolII and the rate of single-nucleotide incorporation by PolRMT have been described previously in detail ([12], [13], [19]). Inhibition of RNA PolI and PolIII was studied using published methods ([20], [21]). All concentrations were final unless noted otherwise. For the RNA PolI inhibition assay, a reaction mixture containing 50 mM HEPES (pH 7.9), 20% glycerol, 100 mM KCl, 1 mM dithiothreitol (DTT), 50 μg/ml calf thymus DNA, 4 mM MgCl2, 5 or 80 μM UTP (0.25 μl of [5,6-^3H]UTP, >25 Ci/mmol; PerkinElmer), 1 mM noncompeting NTP, competing NTP (5 μM for GTP, CTP, and UTP and 25 μM for ATP), and various concentrations (0 to 500 μM) of NTP analogs was preincubated at 30°C for 5 min. […] After incubation at 30°C for 20 min to 1 h, the reactions were terminated by pipetting the mixtures onto DEAE-cellulose discs (DE81; Whatman), and the products analyzed as described previously ([20], [21]).

[1] = Spare respiratory capacity in primary rat cardiomyocytes; conditions: Sprague Dawley, rat, primary rat neonatal cardiomyocytes
Method: (§1) Primary rat neonatal cardiomyocytes were isolated from 3-day-old Sprague Dawley rat pups as described previously ([14]).
(§2) Mitochondrial respiration was monitored by measuring the rate of oxygen consumption (OCR) of PC-3 cells after 3-day treatments with the compounds, using a Seahorse extracellular flux analyzer (XF^e-96) based on published protocols ([22][–][24]). The optimal cell seeding was determined by measuring the basal OCR of PC-3 cells that were seeded at different densities of 2.5 × 10^3, 5 × 10^3, 7.5 × 10^3, and 10 × 10^3 cells/well in XF 96-well plates (Seahorse Bioscience, North Billerica, MA) and incubated with 0.5% dimethyl sulfoxide (DMSO) for 3 days. […] Each reagent in the Mito Stress test kit (Seahorse Biosciences), i.e., ATP synthase inhibitor oligomycin, mitochondrial uncoupler carbonyl cyanide-4-(trifluoromethoxy)phenylhydrazone (FCCP), and a fixed-ratio mixture of the mitochondrial complex I (NADH dehydrogenase) inhibitor rotenone and the complex III (CoQH2-cytochrome c reductase) inhibitor antimycin A, was titrated. […] The OCR signals were normalized by cell numbers using DNA content determined by Hoechst's stain as described below.
(§3) PC-3 cells were seeded at a density of 5 × 10^3 cells/well in XF 96-well plates and incubated with the compounds for 3 days. […] Mitochondrial respiration was monitored by measuring OCR on a Seahorse extracellular flux analyzer (XF^e-96). […]

[2] = system: mitochondrial respiration in primary rat cardiomyocytes; test: as above; conditions: primary rat cardiomyocytes, 3-day treatments
Method: as §1, §2, §3

[3] = system: RNA transcription products from PolI (preribosome), PolII (myc), and PolRMT (ATP6) in PC-3 cells; test: RNA transcripts in PC-3 cells by RT-PCR; format: cell-based, human; conditions: 100 μM, 1-day treatment
Method: CX-5461, a known specific RNA PolI inhibitor, was used as the positive control ([25]). The growth medium was aspirated and replaced with 200 μl of 100 μM BMS-986094, 5 μM CX-5461, or DMSO control prepared in growth medium. At selected time points (0.5, 1, 4, 8, and 24 h), duplicate wells of the compounds and DMSO control were aspirated, the cells were washed 1× with PBS (pH 7.4), and 100 μl of RNA lysis buffer was added (Promega, Sunnyvale, CA). RNA was purified using the Wizard SV 96 total RNA isolation kit (Promega) and eluted in 100 μl of nuclease-free water. The TaqMan RNA-to-Ct 1-step kit (ABI/Life Technologies) was used for reverse transcription-quantitative PCR (RT-qPCR) amplification and quantification, using the 7900HT Fast real-time PCR system (ABI) under the following conditions: 15 min at 48°C for reverse transcription and 10 min at 95°C for activation, followed by 40 cycles of 15 s at 95°C for denaturation and 1 min at 60°C for annealing and extension. […] Transcripts were quantified relative to the standard curves, and the results expressed as the percentages of the average value of DMSO control wells.

HCV replicon = system: HCV replicon; set-up: method as in PMID 21357300, PMID 21060109; conditions: cited from earlier work
Stimulated PBMCs = system: Stimulated PBMCs; set-up: method as in PMID 24419349; conditions: 5 days; read-out: Mean CC50 ± SD in PBMCs Stimulated; cited from earlier work
PC-3 cells = test: Active triphosphate metabolite in PC-3 cells (LC-MS/MS); format: in vitro ADME, human; conditions: 10 μM incubation, maximal concentration observed after 48 h during a 5-day incubation
Method: The amount of nucleoside triphosphate was determined from three independent studies by ion-pairing liquid chromatography-tandem mass spectrometry (LC-MS/MS) as previously described ([16]). All compounds were incubated with the cells at 10 μM, except for BMS-986094 and NM107, which were incubated at 0.1 and 1 μM, respectively, due to the cytotoxicity observed at higher concentrations. Triphosphate concentrations for BMS-986094 and 2′CMeC were applied at doses normalized to the concentrations anticipated after a 10 μM incubation for comparison with the other NI. The reported TP levels are the maximal concentrations observed after 48 h during a 5-day incubation.

[4] = Chronic toxicology studies in rats; format: in vivo; conditions: up to 39 weeks

C[C@@]1(O)[C@H](O)[C@@H](COP(=O)(O)OP(=O)(O)OP(=O)(O)O)O[C@H]1n1cnc2c(=O)[nH]c(N)nc21 [2′CMeGTP]
IC50 (RNA PolI): 300 ± 60 µM

COc1nc(N)nc2c1ncn2[C@@H]1O[C@H](COP(=O)(N[C@@H](C)C(=O)OCC(C)(C)C)Oc2cccc3ccccc23)[C@@H](O)[C@@]1(C)O (some centres unmarked) [BMS-986094]
CC50 at 3 days [1]: 0.43 ± 0.14 µM
selectivity of effect on spare respiratory capacity versus DNA and ATP levels [2]: selective inhibition of mitochondrial respiration
relative levels of RNA transcripts (preribosomal, myc, mitochondrial ATP6, total RNA) [3]: decreased the relative levels of multiple RNA transcripts
fold more potent than IDX184 against the HCV replicon (HCV replicon): 30- to 60 fold

CC(C)OC(=O)[C@H](C)N[P@](=O)(OC[C@H]1O[C@@](C#N)(c2ccc3c(N)ncnn23)[C@](C)(O)[C@@H]1OC(=O)C(C)C)Oc1ccccc1 [GS-6620]
CC50 (Stimulated PBMCs): > 100 µM
Mean TP concn ± SD (PC-3 cells): BLQ
effects during chronic toxicology studies [4]: did not show
